The target in the experiment is T1, Parkin ligase (Homo sapiens, UniProt O60260).
T1 construct: Enzyme: Parkin-His tagged 203 μM (10.5 mg/ml)
T1 sequence (O60260 1-465): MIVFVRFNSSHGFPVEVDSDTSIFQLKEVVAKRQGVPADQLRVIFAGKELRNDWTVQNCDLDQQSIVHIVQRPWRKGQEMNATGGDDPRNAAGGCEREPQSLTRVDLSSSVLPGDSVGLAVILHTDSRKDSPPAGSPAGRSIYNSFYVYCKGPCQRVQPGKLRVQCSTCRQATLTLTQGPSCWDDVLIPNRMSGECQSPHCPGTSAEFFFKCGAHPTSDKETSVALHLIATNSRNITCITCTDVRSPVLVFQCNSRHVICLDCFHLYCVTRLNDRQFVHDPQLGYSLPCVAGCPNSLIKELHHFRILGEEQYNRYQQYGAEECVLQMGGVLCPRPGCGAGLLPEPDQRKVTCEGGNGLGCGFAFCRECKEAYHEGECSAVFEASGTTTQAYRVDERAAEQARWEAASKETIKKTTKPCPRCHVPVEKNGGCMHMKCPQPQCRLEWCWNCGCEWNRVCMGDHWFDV
Kind of experiment: Activity-based probe assay using an ubiquitin vinyl sulfone probe (TR-FRET). Conditions: activation of heat activated Parkin, HA-Ub-VS probe; read-out: Probe Assay EC50 (μM) [Example 2]. Type of experiment: biochemical. On the procedure:
An Ubiquitin vinyl sulfone probe can be used that irreversibly binds to the active site cysteine of Parkin ligase. Covalent attachment of the probe to the Parkin can be monitored by TR-FRET. Candidate activator compounds can be identified by increasing the activity of Parkin ligase due to an increase in TR-FRET signal. Screening for activating compounds can be distinguished from the controls as follows:
100% activation signal=Heat activated Parkin+100 nM control activator in DMSO. 0% activation signal=Heat activated Parkin+DMSO only. Parkin activators can be identified by an increase of the 0% activation signal TR-FRET signal.
• Assay Plate: White 384 well plate (Corning 3572) • Enzyme: Parkin-His tagged 203 μM (10.5 mg/ml) • Probe: Ubiquitin vinyl-sulfone (HA-Ub-VS Boston Biochem U-212) • DMSO: DMSO (Sigma cat # D4540-100ML) • Reaction Buffer: 50 mM HEPES (pH 8.5), 150 mM NaCl, 0.01% Tween 20, 0.1% BSA • Detection Buffer: 50 mM HEPES (pH 8.5), 150 mM NaCl, 0.01% Tween 20, 0.1% BSA, 800 mM KF • Detection Reagent A: 2.6 nM Anti-6HIS-Eu cryptate and 40 nM Anti-HA-XL665 in detection buffer • Eu cryptate: Anti-6HIS-Eu cryptate (CisBio 61HISKLA) • XL665: Anti-HA-XL665 (CisBio 610HAXLA) Enzyme Reaction (15 min Pre Incubation Parkin with Activator Only) • Parkin: 40 nM • HA-Ub-VS Probe: 70 nM • Activator/DMSO: 2× Activator/2% DMSO • Reaction time: 60 minutes • Temperature: 22° C. • Total volume: 10 μl reaction
• Take 10 μl of Enzyme Reaction above and add 10 μl detection Reagent A under the following conditions: • Reaction time: 60 minutes • Temperature: 22° C. • Total volume: 20 μl
Assay procedure (Using HP D-300 compound dispenser and Bravo for the operation):
1) Heat activate Parkin in reaction buffer (500 μl/1.5 ml tube: Eppendorf Thermomixer 5 minutes, 400 rpm at 58° C. and put on ice until needed). 2) Load assay plate wells with 4.8 μl 84.5 nM Parkin in reaction buffer by use of Bravo. 3) Deliver 0.2 μl 200× activator candidates in DMSO by use of HP D-300 compound dispenser. Highest 200× concentration=20 μm and then twofold dilutions. 4) Spin 1000 rpm, 2 minutes, at room temp. 5) Incubate plate for 15 minutes at room temp. 6) Add 5 μl 140 nM HA-Ub-VS Probe in reaction buffer by use of Bravo. 7) Spin 1000 rpm, 2 minutes, at room temp. 8) Incubate plate for 60 minutes at room temp. 9) Add 10 μl 2.6 nM Anti-6HIS-Eu cryptate and 40 nM Anti-HA-XL665 in detection buffer. 10) Spin 1000 rpm, 2 minutes, at room temp. 11) Incubate plate for 60 minutes at room temp. 12) Read plates on Perkin Elmer Envision instrument with the following parameters:
LANCE dual laser protocol loaded into the Envision® software
Top Mirror: LANCE/DELFIA Duel/Bias (Bar code 446) Emission Filter: APC 665 EM (Bar code 205) 2nd Emission Filter: Europium 615 EM (Bar code 203) Read […] (channel 1) and 615 nm (channel 2) wavelengths on Envision®
Data Analysis: The Data can be read in CSV files. There are two tables in those CSV files, which are the values of 655 nm (channel 1) and 615 nm (channel 2) wavelengths respectively. The data is converted to an HTRF Ratio=(Channel 1/Channel 2)*10,000
The average of all the 0 uM controls (DMSO only)=BKGD (Background—0% activation). Subtract BKGD from each HTRF Ratio value=HTRF-BKGD. The average of all the […] 100 nM control activator in DMSO controls=Max (100% activation). The following equation is then used to calculate % Activation for each well/candidate as follows: % Activation=(HTRF−BKGD/Max)*100.
Graphpad Prisim was used with Transform X values: X=Log(X) and nonlinear regression (dose-response-stimulation): Log(agonist) vs Response—variable slope (four parameters) with constrains set to Bottom=0 and Top=100.
(In general: TR-FRET usually uses a lanthanide donor and a delayed reading to cut background.)

Consider 52 compounds from patent US20210163489A1, “PYRAZOLOPYRIMIDINE DERIVATIVES AND THE COMPOSITIONS AND METHODS OF TREATMENT REGARDING THE SAME” (NysnoBio Ireland DAC, priority 2016, published 2021).

For orientation: EC50 means the concentration needed to bring the measured effect to its halfway point.

Where “and” joins values, the source holds several entries; their conditions need not be identical. Identical values can stand only once.

Regarding `Cc1cc(O)n2ncc(-c3cccc(N(C)C)c3)c2n1` [Compound M3], the EC50 was 96.3 µM.
As to `CC(C)(C)c1cc(O)n2ncc(-c3ccccc3)c2n1` [J], the EC50 is 35.4 µM.
As to `Cc1nc2c(-c3ccccc3)c(C)nn2c(O)c1Cc1ccccn1` [Compound Y, 2,5-dimethyl-3-phenyl-6-(2-pyridylmethyl)pyrazolo[1,5-a]pyrimidin-7-ol], the EC50 was over 100 µM.
On to `CNc1c2c(nc3c(-c4ccccc4)c(C)nn13)CCN(C)C2` [YY], for which the EC50 was over 100 µM.
With `Cc1nc2c(-c3ccccn3)c(C)nn2c(S)c1Cc1ccccc1` [HH], the EC50 was found to be 74.2 µM.
On to `Cc1nc2c(-c3ccncc3)c(C)nn2c(S)c1Cc1ccccc1` [MM], for which the EC50 worked out at 7.6 µM.
As for `Cc1cc(S)n2ncc(-c3cnn(C)c3)c2n1` [VV], the EC50 is over 100 µM.
For `Cc1ccc(-c2cnn3c(O)c4c(nc23)CN(C)CC4)cc1` [Compound P3] the value was over 100 µM; for `COc1ccccc1-c1c(C)nn2c(S)cc(C)nc12` [Compound D], over 100 µM; for `CC(C)(C)c1cc(O)n2ncc(-c3ccc(Cl)cc3)c2n1` [Compound G], 53.5 µM.
For `Cc1nn2c(S)c(Cc3ccccc3)cnc2c1-c1ccccc1` [Compound DD, 6-benzyl-2-methyl-3-phenyl-pyrazolo[1,5-a]pyrimidin-7-thiol], the EC50 amounted to 6.5 µM.
On to `Cc1nn2c(O)cc(C(C)(C)C)nc2c1-c1ccc(Cl)cc1` [F], for which the EC50 was 16.7 µM.
In the case of `Cc1cc2nc(C)c(Cc3ccccc3)c(O)n2n1` [Q], the EC50 was over 100 µM.
Take `COc1ccc(-c2cnn3c(O)cc(C)nc23)cc1` [Compound J3]: the EC50 was over 100 µM.
`Cc1nn2c(S)c3c(nc2c1-c1ccccc1)CCOC3` [WW]: the concentration giving a half-maximal response (EC50) was found to be 71 µM.
For `Oc1c(Cc2ccccc2)cnc2c(-c3ccccc3)cnn12` [Compound W, 6-benzyl-3-phenyl-pyrazolo[1,5-a]pyrimidin-7-ol] the value was over 100 µM; for `Cc1cc2nc(C)c(Cc3ccc(Cl)cc3)c(O)n2n1` [Compound P, 6-[(4-chlorophenyl)methyl]-2,5-dimethyl-pyrazolo[1,5-a]pyrimidin-7-ol], 61.4 µM.
Turning to `Cc1nc2c(C(F)(F)F)c(C)nn2c(O)c1Cc1ccccc1` [JJ], the EC50 is over 100 µM.
With `Cc1cc(C)c2c(n1)nn1c(S)c(Cc3ccccc3)c(C)nc21` [RR], the EC50 came to 27.3 µM.
Turning to `Cc1cc(C)c2c(n1)nn1c(O)c(Cc3ccccc3)c(C)nc21` [NN], the EC50 was over 100 µM.
For `COc1ccc(Cn2ccc(-c3cnn4c(S)cc(C)nc34)cc2=O)cc1` [Compound B3], the EC50 came out at 46 µM.
As for `Cc1nn2c(O)c(CC(C)C)cnc2c1-c1ccccc1` [Compound I3], the EC50 is over 100 µM.
With `Cc1nc2c(C#N)c(C)nn2c(S)c1Cc1ccccc1` [OO], the EC50 is over 100 µM.
Consider `Cc1cc(S)n2ncc(-c3cc[nH]c(=O)c3)c2n1` [Compound A3], for which the EC50 was over 100 µM.
`Cc1cc(O)n2nc(C)c(-c3ccc(Cl)cc3)c2n1` [M]: the EC50 is over 100 µM.
On to `Cc1ccc(-c2cnn3c(O)cc(C)nc23)cc1` [Compound H3], for which the EC50 came to 51 µM.
`CCCc1cc(S)n2nc(C)c(-c3ccccc3)c2n1` [Compound B]: the EC50 is over 100 µM.
For `Cc1nc2c(-c3ccccn3)c(C)nn2c(O)c1Cc1ccccc1` [FF], the EC50 came to 17.8 µM.
On to `CCc1nn2c(S)cc(C)nc2c1-c1ccc(F)cc1` [Compound I], for which the concentration for a half-maximal effect (EC50) was over 100 µM.
For `Cc1nn2c(S)cc(C(C)C)nc2c1-c1ccccc1` [H], the EC50 was over 100 µM.
For the compound `Cc1cc(S)n2ncc(-c3ccccc3)c2n1` [Compound C], the EC50 came out at 75.3 µM.
Consider `Cc1nc2c(-c3ccccc3)c(C)nn2c(S)c1Cc1ccccn1` [Compound BB, 2,5-dimethyl-3-phenyl-6-(2-pyridylmethyl)pyrazolo[1,5-a]pyrimidine-7-thiol], for which the EC50 worked out at 14.9 µM.
For `Cc1nn2c(S)c3c(nc2c1-c1ccccc1)CCCC3` [Compound K] the value was 3.3 µM and 3.6 µM; for `Cc1nn2c(S)c3c(nc2c1-c1ccccc1)COC3` [XX], 55.6 µM.
Regarding `Cc1nc2c(-c3ccccc3)c(C)nn2c(O)c1Cc1ccccc1` [T], the EC50 came to 49.1 µM.
With `Cc1nc2c(C(=O)N(C)C)c(C)nn2c(S)c1Cc1ccccc1` [II], the EC50 is over 100 µM.
Consider `Cc1nc2c(-c3cccnc3)c(C)nn2c(O)c1Cc1ccccc1` [Compound L3], for which the EC50 is over 100 µM.
Take `Cc1nc2c(C#N)c(C)nn2c(O)c1Cc1ccccc1` [Compound GG, 6-benzyl-7-hydroxy-2,5-dimethyl-pyrazolo-[1,5-a]pyrimidine-3-carbonitrile]: the EC50 was over 100 µM.
To `Cc1cc2nc(C)c(Cc3ccccc3)c(S)n2n1` [S] belongs 27.9 µM; to `Cc1nc2c(C3CCN(C)CC3)c(C)nn2c(S)c1Cc1ccccc1` [Compound N3], over 100 µM; to `Cc1nc2c(-c3ccccc3)c(C)nn2cc1Cc1ccccc1` [QQ], over 100 µM.
Turning to `Cc1nc2c(C3CCN(C)CC3)c(C)nn2c(O)c1Cc1ccccc1` [Compound O3], the EC50 was over 100 µM.
For `Sc1c(Cc2ccccc2)cnc2c(-c3ccccc3)cnn12` [Compound Z, 6-benzyl-3-phenyl-pyrazolo[1,5-a]pyrimidin-7-thiol], the EC50 was 5.9 µM.
For `Cc1cc2nc(C)c(Cc3ccc(Cl)cc3)c(S)n2n1` [Compound R, 6-[(4-chlorophenyl)methyl]-2,5-dimethyl-pyrazolo[1,5-a]pyrimidine-7-thiol] the value was 18.2 µM.
Take `Cc1nc2c(C(F)(F)F)c(C)nn2c(S)c1Cc1ccccc1` [LL]: the EC50 amounted to 34.1 µM.
For `Cc1nc2c(-c3ccccc3)c(C)nn2c(O)c1Cc1ccncc1` [Compound X, 2,5-dimethyl-3-phenyl-6-(4-pyridylmethyl)pyrazolo[1,5-a]pyrimidin-7-ol] the value was over 100 µM.
Regarding `Cc1nn2c(O)c(Cc3ccccc3)cnc2c1-c1ccccc1` [Compound V, 6-benzyl-2-methyl-3-phenyl-pyrazolo[1,5-a]pyrimidin-7-ol], the EC50 is over 100 µM.
Turning to `Cc1nn2c(O)c3c(nc2c1-c1ccccc1)CCN(C)C3` [Compound K3], the EC50 was over 100 µM.
With `Cc1nc2c(C(=O)N(C)C)c(C)nn2c(O)c1Cc1ccccc1` [EE], the EC50 was over 100 µM.
With `Cc1cc(S)n2nc(C)c(-c3ccc(Cl)cc3)c2n1` [N], the EC50 is over 100 µM.
Turning to `Cc1cc(S)n2nc(C)c(-c3ccccc3)c2n1` [O], the EC50 is over 100 µM.
To `Cc1cc(O)n2ncc(-c3ccc(F)cc3)c2n1` [PP] belongs over 100 µM.
